# In ChEMBL document CHEMBL1128537, “The squalestatins: synthesis and biological activity of some C3-modified analogues; replacement of a carboxylic acid or methyl ester with an isoelectronic heterocyclic functionality” (J Med Chem, 1995):
# pIC50: −log10 of the molar value.
# Target: T1, Squalene synthase (Rattus norvegicus, UniProt Q02769)
# T1 sequence (Q02769 whole entry): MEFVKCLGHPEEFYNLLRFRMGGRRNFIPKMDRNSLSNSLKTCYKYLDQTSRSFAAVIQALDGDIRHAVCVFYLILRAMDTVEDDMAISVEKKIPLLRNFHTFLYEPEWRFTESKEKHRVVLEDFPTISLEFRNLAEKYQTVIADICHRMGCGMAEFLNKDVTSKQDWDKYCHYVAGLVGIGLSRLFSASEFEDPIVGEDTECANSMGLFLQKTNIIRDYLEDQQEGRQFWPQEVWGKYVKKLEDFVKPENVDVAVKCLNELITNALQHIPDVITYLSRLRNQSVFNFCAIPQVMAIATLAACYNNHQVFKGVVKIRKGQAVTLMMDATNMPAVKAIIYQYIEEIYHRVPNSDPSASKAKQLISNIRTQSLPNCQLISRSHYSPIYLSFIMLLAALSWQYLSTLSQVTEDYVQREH
# Test: In vitro for inhibitory activity against Squalene synthase in rat
row,SMILES,pIC50
1,C=C(CC[C@]12O[C@H](c3nnn(C)n3)[C@@](O)(C(=O)O)[C@](C(=O)O)(O1)[C@H](O)[C@H]2O)[C@@H](C(C)=O)[C@H](C)Cc1ccccc1,6.81
2,C=C(CC[C@]12O[C@H](C(=O)OC)[C@@](O)(C(=O)O)[C@](C(=O)O)(O1)[C@H](O)[C@H]2O)[C@@H](C(C)=O)[C@H](C)Cc1ccccc1,6.66
3,C=C(CC[C@]12O[C@H](c3nc(C)no3)[C@@](O)(C(=O)O)[C@](C(=O)O)(O1)[C@H](O)[C@H]2O)[C@@H](C(C)=O)[C@H](C)Cc1ccccc1,6.51
4,C=C(CC[C@]12O[C@H](c3nnnn3C)[C@@](O)(C(=O)O)[C@](C(=O)O)(O1)[C@H](O)[C@H]2O)[C@@H](C(C)=O)[C@H](C)Cc1ccccc1,6.35
5,C=C(CC[C@]12O[C@H](c3nnn[nH]3)[C@@](O)(C(=O)O)[C@](C(=O)O)(O1)[C@H](O)[C@H]2O)[C@@H](C(C)=O)[C@H](C)Cc1ccccc1,7.60
6,C=C(CC[C@]12O[C@H](c3csc(C)n3)[C@@](O)(C(=O)O)[C@](C(=O)O)(O1)[C@H](OC(=O)/C=C/[C@@H](C)C[C@@H](C)CC)[C@H]2O)[C@@H](C(C)=O)[C@H](C)Cc1ccccc1,6.45
7,C=C(CC[C@]12O[C@H](c3csc(C)n3)[C@@](O)(C(=O)O)[C@](C(=O)O)(O1)[C@H](O)[C@H]2O)[C@@H](C(C)=O)[C@H](C)Cc1ccccc1,5.54
8,C=C(CC[C@]12O[C@H](c3cscn3)[C@@](O)(C(=O)O)[C@](C(=O)O)(O1)[C@H](O)[C@H]2O)[C@@H](C(C)=O)[C@H](C)Cc1ccccc1,6.30
9,C=C(CC[C@]12O[C@H](c3n[nH]c(=S)n3C)[C@@](O)(C(=O)O)[C@](C(=O)O)(O1)[C@H](O)[C@H]2O)[C@@H](C(C)=O)[C@H](C)Cc1ccccc1,5.71
10,C=C(CC[C@]12O[C@H](c3nnc(NC)o3)[C@@](O)(C(=O)O)[C@](C(=O)O)(O1)[C@H](OC(=O)/C=C/[C@@H](C)C[C@@H](C)CC)[C@H]2O)[C@@H](C(C)=O)[C@H](C)Cc1ccccc1,8.00
11,C=C(CC[C@]12O[C@H](c3cscn3)[C@@](O)(C(=O)O)[C@](C(=O)O)(O1)[C@H](OC(=O)/C=C/[C@@H](C)C[C@@H](C)CC)[C@H]2O)[C@@H](C(C)=O)[C@H](C)Cc1ccccc1,7.04
12,C=C(CC[C@]12O[C@H](c3csc(NC)n3)[C@@](O)(C(=O)O)[C@](C(=O)O)(O1)[C@H](O)[C@H]2O)[C@@H](C(C)=O)[C@H](C)Cc1ccccc1,5.93
13,C=C(CC[C@]12O[C@H](c3nnc(C)[nH]3)[C@@](O)(C(=O)O)[C@](C(=O)O)(O1)[C@H](O)[C@H]2O)[C@@H](C(C)=O)[C@H](C)Cc1ccccc1,6.51
14,C=C(CC[C@]12O[C@H](c3nc(C)no3)[C@@](O)(C(=O)O)[C@](C(=O)O)(O1)[C@H](OC(=O)/C=C/[C@@H](C)C[C@@H](C)CC)[C@H]2O)[C@@H](C(C)=O)[C@H](C)Cc1ccccc1,7.14
15,C=C(CC[C@]12O[C@H](c3nnn[nH]3)[C@@](O)(C(=O)O)[C@](C(=O)O)(O1)[C@H](OC(=O)/C=C/[C@@H](C)C[C@@H](C)CC)[C@H]2O)[C@@H](C(C)=O)[C@H](C)Cc1ccccc1,8.40
16,C=C(CC[C@]12O[C@H](C(=O)OC)[C@@](O)(C(=O)O)[C@](C(=O)O)(O1)[C@H](OC(=O)/C=C/[C@@H](C)C[C@@H](C)CC)[C@H]2O)[C@@H](C(C)=O)[C@H](C)Cc1ccccc1,8.15
17,C=C(CC[C@]12O[C@H](c3nnn(C)n3)[C@@](O)(C(=O)O)[C@](C(=O)O)(O1)[C@H](OC(=O)/C=C/[C@@H](C)C[C@@H](C)CC)[C@H]2O)[C@@H](C(C)=O)[C@H](C)Cc1ccccc1,7.37
18,C=C(CC[C@]12O[C@H](c3csc(NC)n3)[C@@](O)(C(=O)O)[C@](C(=O)O)(O1)[C@H](OC(=O)/C=C/[C@@H](C)C[C@@H](C)CC)[C@H]2O)[C@@H](C(C)=O)[C@H](C)Cc1ccccc1,6.84
19,C=C(CC[C@]12O[C@H](c3nnnn3C)[C@@](O)(C(=O)O)[C@](C(=O)O)(O1)[C@H](OC(=O)/C=C/[C@@H](C)C[C@@H](C)CC)[C@H]2O)[C@@H](C(C)=O)[C@H](C)Cc1ccccc1,7.24
20,C=C(CC[C@]12O[C@H](c3nnc(S)n3C)[C@@](O)(C(=O)O)[C@](C(=O)O)(O1)[C@H](OC(=O)/C=C/[C@@H](C)C[C@@H](C)CC)[C@H]2O)[C@@H](C(C)=O)[C@H](C)Cc1ccccc1,6.76
21,C=C(CC[C@]12O[C@H](c3cnc[nH]3)[C@@](O)(C(=O)O)[C@](C(=O)O)(O1)[C@H](O)[C@H]2O)[C@@H](C(C)=O)[C@H](C)Cc1ccccc1,6.11
22,C=C(CC[C@]12O[C@H](c3nnc(NC)o3)[C@@](O)(C(=O)O)[C@](C(=O)O)(O1)[C@H](O)[C@H]2O)[C@@H](C(C)=O)[C@H](C)Cc1ccccc1,6.83
23,C=C(CC[C@]12O[C@H](c3csc(N)n3)[C@@](O)(C(=O)O)[C@](C(=O)O)(O1)[C@H](OC(=O)/C=C/[C@@H](C)C[C@@H](C)CC)[C@H]2O)[C@@H](C(C)=O)[C@H](C)Cc1ccccc1,7.20
